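Tested at 5 concentrations; 48 h exposure; 96-well plates; endpoints linearly interpolated, else capped at highest concentration. Abbreviation: GI50, concentration required for 50% inhibition of growth.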 Active and inactive are the calls of the source. No stated cut-off is given here; in the data, active = GI50 up to about 1.1 µM and inactive = higher.
Assays:
Test in all cases: NCI anticancer screen, dose series, 48 h
HOP-62 = tested on: HOP-62
KM12 = tested on: KM12
SF-539 = tested on: SF-539
HL-60 = tested on: HL-60
BT-549 = tested on: BT-549
MDA-MB-435 = tested on: MDA-MB-435
EKVX = tested on: EKVX
UO-31 = tested on: UO-31
CAKI-1 = tested on: CAKI-1
ACHN = tested on: ACHN
M14 = tested on: M14
HCT-116 = tested on: HCT-116
TK-10 = tested on: TK-10
A498 = tested on: A498
MDA-MB-231 = tested on: MDA-MB-231
SK-MEL-2 = tested on: SK-MEL-2
SW-620 = tested on: SW-620
RPMI-8226 = tested on: RPMI-8226
NCI-H460 = tested on: NCI-H460
PC-3 = tested on: PC-3

Row | SMILES | GI50 (HOP-62) | GI50 (KM12) | GI50 (SF-539) | GI50 (HL-60) | GI50 (BT-549) | GI50 (MDA-MB-435) | GI50 (EKVX) | GI50 (UO-31) | GI50 (CAKI-1) | GI50 (ACHN) | GI50 (M14) | GI50 (HCT-116) | GI50 (TK-10) | GI50 (A498) | GI50 (MDA-MB-231) | GI50 (SK-MEL-2) | GI50 (SW-620) | GI50 (RPMI-8226) | GI50 (NCI-H460) | GI50 (PC-3)
1 | CN1CC=C(OP(=O)(NCc2ccccc2)N(CCCl)CCCl)CC1 (stereo not drawn) | > 100 µM (inactive) | > 100 µM (inactive) | > 100 µM (inactive) | > 100 µM (inactive) | > 100 µM (inactive) | > 100 µM (inactive) | > 100 µM (inactive) | > 100 µM (inactive) | > 100 µM (inactive) | > 100 µM (inactive) | > 100 µM (inactive) | > 100 µM (inactive) | > 100 µM (inactive) | > 100 µM (inactive) | > 100 µM (inactive) | > 100 µM (inactive) | > 100 µM (inactive) | > 100 µM (inactive) | > 100 µM (inactive) | > 100 µM (inactive)
2 | CC(C)OC(=O)[C@H]1ON2O[C@H](O[C@@H]3CCCC[C@H]3c3ccccc3)C([Si](C)(C)c3ccccc3)[C@H]3OC(=O)[C@@H]1C32 (stereo partly drawn) | > 100 µM (inactive) | > 100 µM (inactive) | > 100 µM (inactive) | > 100 µM (inactive) | > 100 µM (inactive) | > 100 µM (inactive) | > 100 µM (inactive) | > 100 µM (inactive) | > 100 µM (inactive) | > 100 µM (inactive) | > 100 µM (inactive) | > 100 µM (inactive) | > 100 µM (inactive) | > 100 µM (inactive) | > 100 µM (inactive) | > 100 µM (inactive) | > 100 µM (inactive) | > 100 µM (inactive) | > 100 µM (inactive) | > 100 µM (inactive)
3 | CC(C)=C[C@@H]1O[C@H](O)[C@@H]([C@H]2CC[C@@]3(C)[C@@H]4CC[C@H]5C(C)(C)C(=O)CC[C@@]56C[C@@]46CC[C@]23C)[C@@H]1O | 23.7 µM (inactive) | 18.1 µM (inactive) | 12.4 µM (inactive) | 14.2 µM (inactive) | 20.1 µM (inactive) | 17.7 µM (inactive) | 18.5 µM (inactive) | 15.3 µM (inactive) | 17.3 µM (inactive) | 18.1 µM (inactive) | 21 µM (inactive) | 15.2 µM (inactive) | 16 µM (inactive) | 18.3 µM (inactive) | 19.5 µM (inactive) | 20 µM (inactive) | 13.1 µM (inactive) | 3.14 µM (inactive) | 19.5 µM (inactive) | 13 µM (inactive)
4 | O=C(O)c1ccc(C=C2Sc3ccccc3S2)cc1 | 81.5 µM (inactive) | 46.7 µM (inactive) | > 100 µM (inactive) | 35 µM (inactive) | 62.7 µM (inactive) | 21.1 µM (inactive) | 45 µM (inactive) | 63.8 µM (inactive) | 45.3 µM (inactive) | 22.6 µM (inactive) | 44.8 µM (inactive) | 48.1 µM (inactive) | 75.9 µM (inactive) | 14.5 µM (inactive) | > 100 µM (inactive) | 29.4 µM (inactive) | > 100 µM (inactive) | 63.7 µM (inactive) | 50 µM (inactive) | 50.7 µM (inactive)
5 | CCOC1OC(C)(C=C(C#N)C#N)CCC1C (stereo not drawn) | 22.9 µM (inactive) | > 74 µM (inactive) | 23.8 µM (inactive) | 26.9 µM (inactive) | 21.4 µM (inactive) | 39.1 µM (inactive) | 33.3 µM (inactive) | 33.8 µM (inactive) | 33.2 µM (inactive) | 37.5 µM (inactive) | 35.5 µM (inactive) | 29.9 µM (inactive) | 59.6 µM (inactive) | 22.4 µM (inactive) | 88.1 µM (inactive) | > 100 µM (inactive) | 37.2 µM (inactive) | 21 µM (inactive) | 34.2 µM (inactive) | 49 µM (inactive)
6 | CCOC(=O)c1nc2c3c(ncn2n1)Oc1c(c(-c2ccccc2)nn1-c1ccccc1)C3c1ccc(Cl)cc1 (stereo not drawn) | > 100 µM (inactive) | 15.1 µM (inactive) | > 100 µM (inactive) | > 100 µM (inactive) | > 100 µM (inactive) | > 100 µM (inactive) |  | > 100 µM (inactive) | > 100 µM (inactive) | > 100 µM (inactive) | > 100 µM (inactive) | > 100 µM (inactive) | > 100 µM (inactive) | > 100 µM (inactive) | > 100 µM (inactive) | > 100 µM (inactive) | > 100 µM (inactive) | > 100 µM (inactive) | > 100 µM (inactive) | > 100 µM (inactive)
7 | Cc1ccccc1/N=N/c1ccc(N/N=C2/CCCNC2=O)c(C)c1 | > 100 µM (inactive) | > 100 µM (inactive) |  | 8.55 µM (inactive) | > 100 µM (inactive) | > 100 µM (inactive) | 88.5 µM (inactive) | 39.5 µM (inactive) | > 100 µM (inactive) | > 100 µM (inactive) | > 100 µM (inactive) | > 100 µM (inactive) | > 100 µM (inactive) | > 100 µM (inactive) | > 100 µM (inactive) | > 100 µM (inactive) | > 100 µM (inactive) | > 100 µM (inactive) | > 100 µM (inactive) | > 100 µM (inactive)
8 | C=C(C)C(CC=C(C)C)CC12CC(CC=C(C)C)C(C)(C)C(CC=C(C)C)(C(=O)C(Cc3ccc(O)c(O)c3)=C1O)C2=O (stereo not drawn) | > 100 µM (inactive) | > 100 µM (inactive) | > 100 µM (inactive) | > 100 µM (inactive) | > 100 µM (inactive) | > 100 µM (inactive) | > 100 µM (inactive) | > 100 µM (inactive) | > 100 µM (inactive) | > 100 µM (inactive) | > 100 µM (inactive) | > 100 µM (inactive) | > 100 µM (inactive) | 74 µM (inactive) | > 100 µM (inactive) |  | > 100 µM (inactive) | > 100 µM (inactive) | > 100 µM (inactive) | > 100 µM (inactive)
9 | Cc1c(NC(=O)c2cc([N+](=O)[O-])cc([N+](=O)[O-])c2)c(=O)n(-c2ccccc2)n1C | > 100 µM (inactive) | 82.2 µM (inactive) | 69.8 µM (inactive) | > 100 µM (inactive) | > 100 µM (inactive) | > 100 µM (inactive) |  | > 100 µM (inactive) | > 100 µM (inactive) |  | > 100 µM (inactive) | > 100 µM (inactive) | > 100 µM (inactive) | > 100 µM (inactive) | > 100 µM (inactive) | > 100 µM (inactive) | > 100 µM (inactive) | > 100 µM (inactive) | 97.7 µM (inactive) | 49.8 µM (inactive)
10 | CNc1ccc([S+]([O-])Nc2ccc(OC)cc2)cc1 (stereo not drawn) | > 100 µM (inactive) | 3.86 µM (inactive) | 33.2 µM (inactive) | 54.6 µM (inactive) | 2.06 µM (inactive) | 14.2 µM (inactive) | 70.1 µM (inactive) | 7 µM (inactive) | 65.5 µM (inactive) | 32.3 µM (inactive) | > 100 µM (inactive) | 66.8 µM (inactive) | > 100 µM (inactive) | > 100 µM (inactive) | 17.1 µM (inactive) |  | 31.6 µM (inactive) | > 100 µM (inactive) | 32 µM (inactive) | > 100 µM (inactive)
11 | O=C1C(c2c(O)[nH]c3ccc(Br)cc23)=Nc2ccccc21 | 12.4 µM (inactive) | 2.92 µM (inactive) |  | 96.2 µM (inactive) | 19.5 µM (inactive) | 6.9 µM (inactive) | 2.93 µM (inactive) | 2.74 µM (inactive) | 2.65 µM (inactive) | 3.06 µM (inactive) | 11.3 µM (inactive) | 2.32 µM (inactive) | 13.4 µM (inactive) | 3.3 µM (inactive) | 15 µM (inactive) | 11.9 µM (inactive) | 12.7 µM (inactive) | 8.79 µM (inactive) | 12.7 µM (inactive) | 5 µM (inactive)
12 | O=Cc1cn(CCCCCn2cc(C=O)c3ccccc32)c2ccccc12 |  |  | > 100 µM (inactive) | > 100 µM (inactive) | > 100 µM (inactive) | > 100 µM (inactive) | > 100 µM (inactive) | > 100 µM (inactive) | > 100 µM (inactive) | > 100 µM (inactive) | > 100 µM (inactive) | > 100 µM (inactive) | > 100 µM (inactive) | 5.71 µM (inactive) | 54.6 µM (inactive) | > 100 µM (inactive) | > 100 µM (inactive) | > 100 µM (inactive) | 0.124 µM (active) | > 100 µM (inactive)
13 | BrC(c1cccc2ccccc12)c1cccc2ccccc12 | 14.1 µM (inactive) | 15.5 µM (inactive) |  | 20 µM (inactive) | 21.4 µM (inactive) | 7.23 µM (inactive) | 16.7 µM (inactive) | 26.8 µM (inactive) | 22.2 µM (inactive) | 21.9 µM (inactive) | 17.3 µM (inactive) | 6.61 µM (inactive) | 29 µM (inactive) | 17.6 µM (inactive) | 13.8 µM (inactive) | 14.9 µM (inactive) | 16.7 µM (inactive) | > 100 µM (inactive) | 15.9 µM (inactive) | 22.1 µM (inactive)
14 | CC(=O)Nc1c(S(=O)(=O)c2ccccc2)c(C)c(C)n1Cc1ccccc1 |  | 49.2 µM (inactive) |  | > 100 µM (inactive) | > 100 µM (inactive) | > 100 µM (inactive) | > 100 µM (inactive) | > 100 µM (inactive) | > 100 µM (inactive) | > 100 µM (inactive) | > 100 µM (inactive) | > 100 µM (inactive) | > 100 µM (inactive) | > 100 µM (inactive) | > 100 µM (inactive) | > 100 µM (inactive) | > 100 µM (inactive) | > 100 µM (inactive) | > 100 µM (inactive) | 44.9 µM (inactive)
